Data published in ChEMBL document CHEMBL4513141, “CO-ADD screening of NIH (USA) - Clinical Collection” (2021).
≈ marks a conversion by molar mass, not a printed value.

How the values were obtained:
Candida albicans [1] = experiment: microbe, parasite or virus in culture; settings: ATCC 90028, ASSAY_TEST Inhibition of Fungal Growth, detection method Absorption (OD530), plate type 384well, NBS, CORNING #3640
Description: (§1) Antifungal activity against Candida albicans ATCC 90028 (CO-ADD:FG_001); MIC in YNB media using NBS plates, by OD630

HEK293 = experiment: cells; type: functional, Homo sapiens, ATCC CRL1573; settings: ASSAY_TEST Inhibition of Cell Viability, detection method Resazurin, Fluorescence (ex560/em590), MEDIA DMEM with 10% FBS, plate type 384well, TC, CORNING #3712, time 18 hr
Escherichia coli [2] = experiment: microbe, parasite or virus in culture; settings: ATCC 25922, 18 h, ASSAY_TEST Inhibition of Bacterial Growth, detection method Absorption (OD600), MEDIA CAMHB, plate type 384well, NBS, CORNING #3640
Description: (§2) Antibacterial activity against Escherichia coli ATCC 25922 (CO-ADD:GN_001); MIC in CAMBH media using NBS plates, by OD(600)

Pseudomonas aeruginosa [3] = settings: ASSAY_TEST Inhibition of Bacterial Growth; detection method Absorption (OD600); MEDIA CAMHB; plate type 384well; NBS; CORNING #3640; time 18 hr
Description: (§3) Antibacterial activity against Pseudomonas aeruginosa ATCC 27853 (CO-ADD:GN_042); MIC in CAMBH media using NBS plates, by OD(600)

Staphylococcus aureus [4] = settings: ASSAY_TEST Inhibition of Bacterial Growth; detection method Absorption (OD600); MEDIA CAMHB; plate type 384well; NBS; CORNING #3640; time 18 hr
Description: (§4) Antibacterial activity against Staphylococcus aureus MRSA ATCC 43300 (CO-ADD:GP_020); MIC in CAMBH media, using NBS plates, by OD(600)

Acinetobacter baumannii [5] = settings: ASSAY_TEST Inhibition of Bacterial Growth; detection method Absorption (OD600); MEDIA CAMHB; plate type 384well; NBS; CORNING #3640; time 18 hr
Description: (§5) Antibacterial activity against Acinetobacter baumannii ATCC 19606 (CO-ADD:GN_034); MIC in CAMBH media using NBS plates, by OD600

Klebsiella pneumoniae [6] = experiment: microbe, parasite or virus in culture; settings: ATCC 700603, 18 h, ASSAY_TEST Inhibition of Bacterial Growth, detection method Absorption (OD600), MEDIA CAMHB, plate type 384well, NBS, CORNING #3640
Description: (§6) Antibacterial activity against Klebsiella pneumoniae MDR ATCC 70063 (CO-ADD:GN_003); MIC in CAMBH media using NBS plates, by OD(600)

Candida albicans [7] = settings: ASSAY_TEST Inhibition of Fungal Growth; detection method Absorption (OD530); plate type 384well; NBS; CORNING #3640
Description: as §1

Escherichia coli [8] = settings: ASSAY_TEST Inhibition of Bacterial Growth; detection method Absorption (OD600); MEDIA CAMHB; plate type 384well; NBS; CORNING #3640; time 18 hr
Description: as §2

Klebsiella pneumoniae [9] = settings: ASSAY_TEST Inhibition of Bacterial Growth; detection method Absorption (OD600); MEDIA CAMHB; plate type 384well; NBS; CORNING #3640; time 18 hr
Description: as §6

Staphylococcus aureus [10] = experiment: microbe, parasite or virus in culture; settings: ATCC 43300, 18 h, ASSAY_TEST Inhibition of Bacterial Growth, detection method Absorption (OD600), MEDIA CAMHB, plate type 384well, NBS, CORNING #3640
Description: as §4

Acinetobacter baumannii [11] = experiment: microbe, parasite or virus in culture; settings: ATCC 19606, 18 h, ASSAY_TEST Inhibition of Bacterial Growth, detection method Absorption (OD600), MEDIA CAMHB, plate type 384well, NBS, CORNING #3640
Description: as §5

Pseudomonas aeruginosa [12] = experiment: microbe, parasite or virus in culture; settings: ATCC 27853, 18 h, ASSAY_TEST Inhibition of Bacterial Growth, detection method Absorption (OD600), MEDIA CAMHB, plate type 384well, NBS, CORNING #3640
Description: as §3

[13] = Homo sapiens, ATCC CRL1573, HEK293

Description for Cryptococcus neoformans: Antifungal activity against Cryptococcus neoformans H99 ATCC 208821 (CO-ADD:FG_002); MIC in YNB media using NBS plates, by Resazurin OD(600-570)

MIC (Candida albicans [1]) [µM]	MIC (Escherichia coli [2]) [µM]	MIC (Pseudomonas aeruginosa [3]) [µM]	MIC (Staphylococcus aureus [4]) [µM]	MIC (Acinetobacter baumannii [5]) [µM]	MIC (Klebsiella pneumoniae [6]) [µM]	MIC (Cryptococcus neoformans) [µM]	MIC (Candida albicans [7]) [µM]	MIC (Escherichia coli [8]) [µM]	MIC (Klebsiella pneumoniae [9]) [µM]	MIC (Staphylococcus aureus [10]) [µM]	MIC (Acinetobacter baumannii [11]) [µM]	MIC (Pseudomonas aeruginosa [12]) [µM]	Compound	CC50 (HEK293; [13]) [µM]	CC50 (HEK293) [µM]
> 10	≤ 0.0781	0.625	0.625	2.5	2.5	> 10							C[C@H]1COc2c(N3CCN(C)CC3)c(F)cc3c(=O)c(C(=O)O)cn1c23.C[C@H]1COc2c(N3CCN(C)CC3)c(F)cc3c(=O)c(C(=O)O)cn1c23.O [LEVOFLOXACIN]	> 10	
		>10	5	>10		> 10	>10	>10	>10				COc1cccc2c1C(=O)c1c(O)c3c(c(O)c1C2=O)C[C@@](O)(C(C)=O)C[C@@H]3OC1CC(N)C(O)C(C)O1.Cl (stereo not given in full)		0.148
> 10	> 10				> 10	> 10				5 (≈ 1.24 µg/mL)	> 10	> 10	CCc1nc(N)nc(N)c1-c1ccc(Cl)cc1 [PYRIMETHAMINE]	> 10	
> 10	2.5 (≈ 1.13 µg/mL)				> 10	> 10				> 10	> 10	> 10	C=CC1=C(C(=O)O)N2C(=O)[C@@H](NC(=O)/C(=N/OCC(=O)O)c3csc(N)n3)[C@H]2SC1	> 10	

Compound	MIC (Candida albicans [1]) [µM]	MIC (Escherichia coli [2]) [µM]	MIC (Pseudomonas aeruginosa [3]) [µM]	MIC (Staphylococcus aureus [4]) [µM]	MIC (Acinetobacter baumannii [5]) [µM]	MIC (Klebsiella pneumoniae [6]) [µM]	MIC (Cryptococcus neoformans) [µM]	MIC (Candida albicans [7]) [µM]	MIC (Escherichia coli [8]) [µM]	MIC (Klebsiella pneumoniae [9]) [µM]	MIC (Staphylococcus aureus [10]) [µM]	MIC (Acinetobacter baumannii [11]) [µM]	MIC (Pseudomonas aeruginosa [12]) [µM]	CC50 (HEK293; [13]) [µM]	CC50 (HEK293) [µM]
Clc1ccc(COC(Cn2ccnc2)c2ccc(Cl)cc2Cl)c(Cl)c1 (stereo not given) [MICONAZOLE NITRATE]	≤ 0.0781	> 10				> 10	0.625				> 10	> 10	> 10	> 10	
